Data as given in patent US7578968B1, “Microbiological control in oil or gas field operations” (Albemarle Corporation, priority 2002, dated 2009).

Key:
Assay type in all cases: physicochemical
[1] = Comparative study of oxidation reduction potentials (ORP) and halogen residuals in cooling tower water
Method: The oxidants studied consisted of WELLGUARD 909 biocide, STABREX biocide (stabilized NaBr+NaOCl), bleach (NaOCl), and activated sodium bromide (NaOCl and NaBr).
Stock solutions of the biocides were prepared at 1000 ppm halogen residual concentration (as Cl2) in brown glass bottles using deionized water for dilution. Solution activities were confirmed using the DPD method and a Hach Co. (Loveland, Colo.) DR/2000 spectrophotometer.
Aliquots of the stock solutions above were added to 1000 mL of cooling tower water that had been pulled from a cooling tower. A 1000 mL beaker was charged with 1000 mL of cooling tower water and stirred while measuring ORP with a Brinkmann Metrohm 716 DMS Titrino automatic titrator. It took about 45 minutes for the sample to equilibrate—the ORP reading would gradually decline to a reading of about 300 mV. The sample was deemed to have equilibrated when the change in the ORP reading was less than or equal to 1 unit/minute. At this point, 0.5 g of stock solution (nominal halogen residual=0.5 ppm) was added and the mixture allowed to equilibrate once again. A sample was pulled to determine free and total halogen residuals and then 0.5 g additional stock solution was added and the process repeated. The following aliquots were added during the experiment: 0.5 g, 1.0 g, 2.0 g, 3.0 g, 4.0 g, 6.0 g, 8.0 g, 10.0 g.

[2] = Reversion of AMP to orthophosphate by oxidizing biocides; settings: for Phosphate (orthophosphate from AMP): oxidant 10 ppm as Cl2, pH 9.1, 23° C.
Method: (§1) The oxidants studied consisted of WELLGUARD 909 biocide, bleach (NaOCl), and activated sodium bromide (NaOCl and NaBr). The WELLGUARD 909 biocide and bleach were added directly. Activated sodium bromide was prepared in situ by introducing 20 ppm bromide ion to the stock solution followed by addition of bleach. The phosphonates used in this work consisted of AMP (aminomethylene phosphonic acid), HEDP (hydroxyethylidene diphosphonic acid), and PBTC (phosphonobutanetricarboxylic acid). These materials were commercial samples (Mayoquest 1320, 1500, and 2100, respectively) obtained from Callaway Chemical Co. (Smyrna, Ga.).
(§2) Solutions consisting of 5 ppm scale inhibitor (as active phosphonate) in the presence of 10 ppm oxidant (as Cl2) were prepared as follows. To 900 mL deionized water were added appropriate stock solutions containing phosphonate, alkalinity (NaHCO3), and calcium hardness (CaCl2). The pH was adjusted to 9.1 with 5% aq. NaOH and diluted up to 1 L in a dark amber bottle. A dose of oxidant was added to achieve a residual of 10 ppm. The solutions were then periodically monitored for phosphonate reversion by determining the reversion to orthophosphate (Hach method 490). The oxidant residual was also periodically monitored using the DPD method (Hach method 80). All of this work was performed at room temperature (23° C.). The initial active phosphonate content was confirmed by conversion to orthophosphate via UV/persulfate oxidation followed by a conventional phosphate analysis (Hach method 501). A conversion factor was applied to the phosphate measurement to determine the initial amount of active phosphonate present as follows: AMP, 1.05; HEDP, 1.085; PBTC, 2.85.

[3] = Reversion of HEDP to orthophosphate by oxidizing biocides; settings: for Phosphate (orthophosphate from HEDP): oxidant 10 ppm as Cl2, pH 9.1, 23° C.
Method: as §1, §2

[4] = Reversion of PBTC to orthophosphate by oxidizing biocides; settings: for Phosphate (orthophosphate from PBTC): oxidant 10 ppm as Cl2, pH 9.1, 23° C.
Method: as §1, §2

[5] = nominal free/total ppm (as Cl2): STABREX 0.49/0.51, WELLGUARD 909 0.42/0.52, Bleach 0.50, Activated NaBr 0.48/0.52
[6] = nominal free/total ppm: STABREX 0.98/1.04, WELLGUARD 909 0.85/1.04, Bleach 1.00, Activated NaBr 0.97/1.05
[7] = nominal free/total ppm: STABREX 2.00/2.11, WELLGUARD 909 1.72/2.12, Bleach 2.04, Activated NaBr 1.97/2.14
[8] = nominal free/total ppm: STABREX 3.04/3.20, WELLGUARD 909 2.62/3.22, Bleach 3.09, Activated NaBr 2.99/3.25
[9] = nominal free/total ppm: STABREX 4.09/4.32, WELLGUARD 909 3.53/4.20, Bleach 4.17, Activated NaBr 4.03/4.39
[10] = nominal free/total ppm: STABREX 6.26/6.60, WELLGUARD 909 5.40/6.63, Bleach 6.37, Activated NaBr 6.17/6.71
[11] = nominal free/total ppm: STABREX 8.47/8.94, WELLGUARD 909 7.31/8.98, Bleach 8.63, Activated NaBr 8.35/9.08
[12] = nominal free/total ppm: STABREX 10.74/11.33, WELLGUARD 909 9.26/11.38, Bleach 10.93, Activated NaBr 10.58/11.51

## [Na+].[O-]Cl [Bleach, NaOCl]
[1]; conditions of Table 3
  loss in biocide residual: significant loss of residual during initial stages of biocide addition
[1]; [5]
  Actual Residual, ppm Free: 0.13 ppm
  Actual Residual, ppm Total: 0.34 ppm
  ORP Reading, mV: 500 mV
[1]; [6]
  Actual Residual, ppm Free: 0.29 ppm
  Actual Residual, ppm Total: 0.48 ppm
  ORP Reading, mV: 620 mV
[1]; [7]
  Actual Residual, ppm Free: 1.12 ppm
  Actual Residual, ppm Total: 1.29 ppm
  ORP Reading, mV: 659 mV
[1]; [8]
  Actual Residual, ppm Free: 1.88 ppm
  Actual Residual, ppm Total: 2.08 ppm
  ORP Reading, mV: 672 mV
[1]; [9]
  Actual Residual, ppm Free: 2.98 ppm
  Actual Residual, ppm Total: 3.43 ppm
  ORP Reading, mV: 678 mV
[1]; [10]
  Actual Residual, ppm Free: 5.24 ppm
  Actual Residual, ppm Total: 5.68 ppm
  ORP Reading, mV: 683 mV
[1]; [11]
  Actual Residual, ppm Free: 7.68 ppm
  Actual Residual, ppm Total: 8.16 ppm
  ORP Reading, mV: 685 mV
[1]; [12]
  Actual Residual, ppm Free: 10.08 ppm
  Actual Residual, ppm Total: 10.78 ppm
  ORP Reading, mV: 689 mV
[2]; AMP 5 ppm, initial oxidant 10 ppm as Cl2, pH 9.1, 23° C., 460 minutes
  Cl2 (oxidant residual): 9.4 ppm
[2]; AMP 5 ppm, 20 minutes
  Phosphate (orthophosphate from AMP): 0.35 ppm
[2]; AMP 5 ppm, 40 minutes
  Phosphate (orthophosphate from AMP): 0.7 ppm
[2]; AMP 5 ppm, 70 minutes
  Phosphate (orthophosphate from AMP): 0.53 ppm
[2]; AMP 5 ppm, 100 minutes
  Phosphate (orthophosphate from AMP): 0.75 ppm
[2]; AMP 5 ppm, 130 minutes
  Phosphate (orthophosphate from AMP): 0.8 ppm
[2]; AMP 5 ppm, 190 minutes
  Phosphate (orthophosphate from AMP): 0.77 ppm
[2]; AMP 5 ppm, 220 minutes
  Phosphate (orthophosphate from AMP): 0.59 ppm
[2]; AMP 5 ppm, 250 minutes
  Phosphate (orthophosphate from AMP): 0.64 ppm
[2]; AMP 5 ppm, 280 minutes
  Phosphate (orthophosphate from AMP): 0.83 ppm
[2]; AMP 5 ppm, 310 minutes
  Phosphate (orthophosphate from AMP): 0.82 ppm
[2]; AMP 5 ppm, 340 minutes
  Phosphate (orthophosphate from AMP): 0.8 ppm
[2]; AMP 5 ppm, 370 minutes
  Phosphate (orthophosphate from AMP): 0.81 ppm
[2]; AMP 5 ppm, 400 minutes
  Phosphate (orthophosphate from AMP): 0.79 ppm
[2]; AMP 5 ppm, 520 minutes
  Phosphate (orthophosphate from AMP): 0.97 ppm
[2]; AMP 5 ppm, 1360 minutes
  Phosphate (orthophosphate from AMP): 0.91 ppm
[2]; AMP, Table 4 averages
  averaged amounts of phosphonate reversion: 18.7%
[2]; AMP, average 100-1360 minutes, maximum liberable phosphate: WELLGUARD 909 4.58, Activated NaBr 4.18, Bleach 4.22 ppm
  Phosphate, average: 0.79 ppm
[3]; HEDP 5 ppm, initial oxidant 10 ppm as Cl2, pH 9.1, 23° C., 400 minutes
  Cl2 (oxidant residual): 10.6 ppm
[3]; HEDP 5 ppm, 20 minutes
  Phosphate (orthophosphate from HEDP): 0 ppm
[3]; HEDP 5 ppm, 40 minutes
  Phosphate (orthophosphate from HEDP): 0 ppm
[3]; HEDP 5 ppm, 70 minutes
  Phosphate (orthophosphate from HEDP): 0.2 ppm
[3]; HEDP 5 ppm, 100 minutes
  Phosphate (orthophosphate from HEDP): 0.25 ppm
[3]; HEDP 5 ppm, 130 minutes
  Phosphate (orthophosphate from HEDP): 0.31 ppm
[3]; HEDP 5 ppm, 190 minutes
  Phosphate (orthophosphate from HEDP): 0.61 ppm
[3]; HEDP 5 ppm, 220 minutes
  Phosphate (orthophosphate from HEDP): 0.65 ppm
[3]; HEDP 5 ppm, 250 minutes
  Phosphate (orthophosphate from HEDP): 0.39 ppm
[3]; HEDP 5 ppm, 280 minutes
  Phosphate (orthophosphate from HEDP): 0.41 ppm
[3]; HEDP 5 ppm, 310 minutes
  Phosphate (orthophosphate from HEDP): 0.58 ppm
[3]; HEDP 5 ppm, 340 minutes
  Phosphate (orthophosphate from HEDP): 0.65 ppm
[3]; HEDP 5 ppm, 370 minutes
  Phosphate (orthophosphate from HEDP): 0.84 ppm
[3]; HEDP 5 ppm, 400 minutes
  Phosphate (orthophosphate from HEDP): 0.65 ppm
[3]; HEDP 5 ppm, 460 minutes
  Phosphate (orthophosphate from HEDP): 0.95 ppm
[3]; HEDP 5 ppm, 520 minutes, maximum liberable phosphate: WELLGUARD 909 4.20, Activated NaBr 4.40, Bleach 4.80 ppm
  Phosphate (orthophosphate from HEDP): 0.94 ppm
[3]; HEDP, after 520 minutes
  relative amounts of reversion: 19.6%
[4]; PBTC 5 ppm, initial oxidant 10 ppm as Cl2, pH 9.1, 23° C., 390 minutes (second 390 line)
  residual oxidant (as Cl2): 9.5 ppm
[4]; PBTC 5 ppm, 30 minutes
  Phosphate (orthophosphate from PBTC): 0 ppm
[4]; PBTC 5 ppm, 60 minutes
  Phosphate (orthophosphate from PBTC): 0 ppm
[4]; PBTC 5 ppm, 90 minutes
  Phosphate (orthophosphate from PBTC): 0 ppm
[4]; PBTC 5 ppm, 120 minutes
  Phosphate (orthophosphate from PBTC): 0 ppm
[4]; PBTC 5 ppm, 150 minutes
  Phosphate (orthophosphate from PBTC): 0 ppm
[4]; PBTC 5 ppm, 180 minutes
  Phosphate (orthophosphate from PBTC): 0 ppm
[4]; PBTC 5 ppm, 210 minutes
  Phosphate (orthophosphate from PBTC): 0.12 ppm
[4]; PBTC 5 ppm, 270 minutes
  Phosphate (orthophosphate from PBTC): 0.16 ppm
[4]; PBTC 5 ppm, 330 minutes
  Phosphate (orthophosphate from PBTC): 0.05 ppm
[4]; PBTC 5 ppm, 360 minutes
  Phosphate (orthophosphate from PBTC): 0.02 ppm
[4]; PBTC 5 ppm, 390 minutes (first 390 line)
  Phosphate (orthophosphate from PBTC): 0.02 ppm
[4]; PBTC 5 ppm, 1360 minutes
  Phosphate (orthophosphate from PBTC): 0.08 ppm
[4]; PBTC, after 3½ hours contact and beyond
  average amounts of phosphonate reversion: 5.2%
[4]; PBTC, average 210-1360 minutes, maximum liberable phosphate: WELLGUARD 909 1.72, Activated NaBr 1.82, Bleach 1.44 ppm
  Phosphate, average: 0.075 ppm
